Reference: ChEMBL document CHEMBL1143429, “One-pot synthesis and antibacterial activities of pyrazolo[4',3':5,6]pyrido[2,3-d]pyrimidine-dione derivatives” (2008)
In brackets after ≈: the same amount, converted by molar mass. Activity calls are given as the source filed them. The calls are words filed in the database; no cut-off is given here.

Assays:
Assay type in all cases: functional
Pseudomonas aeruginosa = test: Antibacterial activity against Pseudomonas aeruginosa ATCC 85327 by microdilution method
Bacillus pumilus = test: Antibacterial activity against Bacillus pumilus PTCC 1114 by microdilution method
Streptococcus mutans = test: Antibacterial activity against Streptococcus mutans PTCC 1601 by microdilution method
Escherichia coli = test: Antibacterial activity against Escherichia coli ATCC 25922 by microdilution method
Bacillus subtilis = test: Antibacterial activity against Bacillus subtilis ATCC 465 by microdilution method
Enterococcus faecalis = test: Antibacterial activity against Enterococcus faecalis ATCC 29737 by microdilution method
Micrococcus luteus = test: Antibacterial activity against Micrococcus luteus PTCC 1110 by microdilution method
[1] = system: Staphylococcus epidermidis; test: Antibacterial activity against Staphylococcus epidermidis ATCC 12228 by microdilution method
Staphylococcus aureus = test: Antibacterial activity against Staphylococcus aureus ATCC 25923 by microdilution method

Row | Compound | MIC (Pseudomonas aeruginosa) [µg/mL] | MIC (Bacillus pumilus) [µg/mL] | MIC (Streptococcus mutans) [µg/mL] | MIC (Escherichia coli) [µg/mL] | MIC (Bacillus subtilis) [µg/mL] | MIC (Enterococcus faecalis) [µg/mL] | MIC (Micrococcus luteus) [µg/mL] | MIC [1] [µg/mL] | MIC (Staphylococcus aureus) [µg/mL] | Activity (Bacillus pumilus) | Activity (Streptococcus mutans) | Activity (Bacillus subtilis) | Activity (Enterococcus faecalis) | Activity (Micrococcus luteus) | Activity [1] | Activity (Staphylococcus aureus) | Activity (Pseudomonas aeruginosa) | Activity (Escherichia coli)
1 | O=c1[nH]c(=S)[nH]c2c1C(c1ccc(Cl)cc1)c1c(-c3ccccc3)nn(-c3ccccc3)c1N2 (configuration not stated) | 16 (≈ 33.1 µM) | 4 (≈ 8.26 µM) | 8 (≈ 16.5 µM) | 4 (≈ 8.26 µM) | 4 (≈ 8.26 µM) | 16 (≈ 33.1 µM) | 4 (≈ 8.26 µM) | 8 (≈ 16.5 µM) | 4 (≈ 8.26 µM) |  |  |  |  |  |  |  |  | 
2 | GENTAMICIN | 8 |  |  | 4 |  |  |  |  |  | inactive | inactive | inactive | inactive | inactive | inactive | inactive |  | 
3 | O=c1[nH]c(=S)[nH]c2c1C(c1ccccc1)c1c(-c3ccccc3)nn(-c3ccc([N+](=O)[O-])cc3)c1N2 (configuration not stated) | 14 (≈ 28.3 µM) | 4 (≈ 8.09 µM) | 8 (≈ 16.2 µM) | 5 (≈ 10.1 µM) | 3 (≈ 6.07 µM) | 13 (≈ 26.3 µM) | 4 (≈ 8.09 µM) | 7 (≈ 14.2 µM) | 3 (≈ 6.07 µM) |  |  |  |  |  |  |  |  | 
4 | CN(C)[C@@H]1C(O)=C(C(N)=O)C(=O)[C@@]2(O)C(O)=C3C(=O)c4c(O)cccc4[C@@](C)(O)[C@H]3C[C@@H]12 [TETRACYCLINE] |  | 8 (≈ 18 µM) | 2 (≈ 4.5 µM) |  | 4 (≈ 9 µM) | 8 (≈ 18 µM) | 4 (≈ 9 µM) | < 2 | 4 (≈ 9 µM) |  |  |  |  |  |  |  | inactive | inactive
5 | O=c1[nH]c(=S)[nH]c2c1C(c1ccccc1)c1c(-c3ccccc3)nn(-c3ccccc3)c1N2 (configuration not stated) | 32 (≈ 71.2 µM) | 4 (≈ 8.9 µM) | < 2 | 4 (≈ 8.9 µM) | 4 (≈ 8.9 µM) | 4 (≈ 8.9 µM) | 8 (≈ 17.8 µM) | 4 (≈ 8.9 µM) | 8 (≈ 17.8 µM) |  |  |  |  |  |  |  |  | 
6 | O=c1[nH]c2c(c(=O)[nH]1)C(c1ccccc1)c1c(-c3ccccc3)nn(-c3ccc([N+](=O)[O-])cc3)c1N2 (configuration not stated) | 20 (≈ 41.8 µM) | 4 (≈ 8.36 µM) | < 2 | 4 (≈ 8.36 µM) | 6 (≈ 12.5 µM) | 4 (≈ 8.36 µM) | 2 (≈ 4.18 µM) | 18 (≈ 37.6 µM) | 4 (≈ 8.36 µM) |  |  |  |  |  |  |  |  | 
7 | Cc1ccc(C2c3c(-c4ccccc4)nn(-c4ccccc4)c3Nc3[nH]c(=O)[nH]c(=O)c32)cc1 (configuration not stated) | 2 (≈ 4.47 µM) | 2 (≈ 4.47 µM) | < 2 | < 2 | 2 (≈ 4.47 µM) | 2 (≈ 4.47 µM) | < 2 | 2 (≈ 4.47 µM) | 2 (≈ 4.47 µM) |  |  |  |  |  |  |  |  | 
8 | O=c1[nH]c2c(c(=O)[nH]1)C(c1ccc(Br)cc1)c1c(-c3ccccc3)nn(-c3ccccc3)c1N2 (configuration not stated) | 2 (≈ 3.9 µM) | 2 (≈ 3.9 µM) | < 2 | < 2 | 2 (≈ 3.9 µM) | 30 (≈ 58.6 µM) | 2 (≈ 3.9 µM) | 2 (≈ 3.9 µM) | 58 (≈ 113 µM) |  |  |  |  |  |  |  |  | 
9 | O=c1[nH]c2c(c(=O)[nH]1)C(c1cccc([N+](=O)[O-])c1)c1c(-c3ccccc3)nn(-c3ccccc3)c1N2 (configuration not stated) | 2 (≈ 4.18 µM) | 2 (≈ 4.18 µM) | < 2 | < 2 | 2 (≈ 4.18 µM) | 2 (≈ 4.18 µM) | 2 (≈ 4.18 µM) | 2 (≈ 4.18 µM) | 2 (≈ 4.18 µM) |  |  |  |  |  |  |  |  | 
10 | O=c1[nH]c2c(c(=O)[nH]1)C(c1ccc(Cl)cc1)c1c(-c3ccccc3)nn(-c3ccc([N+](=O)[O-])cc3)c1N2 (configuration not stated) | 28 (≈ 54.6 µM) | 6 (≈ 11.7 µM) | < 2 | 6 (≈ 11.7 µM) | 8 (≈ 15.6 µM) | 2 (≈ 3.9 µM) | 4 (≈ 7.8 µM) | 28 (≈ 54.6 µM) | 4 (≈ 7.8 µM) |  |  |  |  |  |  |  |  | 
11 | O=c1[nH]c(=S)[nH]c2c1C(c1ccc(Cl)cc1)c1c(-c3ccccc3)nn(-c3ccc([N+](=O)[O-])cc3)c1N2 (configuration not stated) | 16 (≈ 30.2 µM) | 4 (≈ 7.56 µM) | 8 (≈ 15.1 µM) | 6 (≈ 11.3 µM) | 4 (≈ 7.56 µM) | 12 (≈ 22.7 µM) | 3 (≈ 5.67 µM) | 6 (≈ 11.3 µM) | 6 (≈ 11.3 µM) |  |  |  |  |  |  |  |  | 
12 | O=c1[nH]c2c(c(=O)[nH]1)C(c1cccc([N+](=O)[O-])c1)c1c(-c3ccccc3)nn(-c3ccc([N+](=O)[O-])cc3)c1N2 (configuration not stated) | 30 (≈ 57.3 µM) | 4 (≈ 7.64 µM) | < 2 | 6 (≈ 11.5 µM) | 6 (≈ 11.5 µM) | 2 (≈ 3.82 µM) | 2 (≈ 3.82 µM) | 26 (≈ 49.7 µM) | 2 (≈ 3.82 µM) |  |  |  |  |  |  |  |  | 
13 | O=c1[nH]c(=S)[nH]c2c1C(c1ccc([N+](=O)[O-])cc1)c1c(-c3ccccc3)nn(-c3ccc([N+](=O)[O-])cc3)c1N2 (configuration not stated) | 14 (≈ 25.9 µM) | 4 (≈ 7.41 µM) | 8 (≈ 14.8 µM) | 6 (≈ 11.1 µM) | 4 (≈ 7.41 µM) | 10 (≈ 18.5 µM) | 4 (≈ 7.41 µM) | 8 (≈ 14.8 µM) | 6 (≈ 11.1 µM) |  |  |  |  |  |  |  |  | 
14 | O=c1[nH]c2c(c(=O)[nH]1)C(c1ccccc1)c1c(-c3ccccc3)nn(-c3ccccc3)c1N2 (configuration not stated) | 2 (≈ 4.61 µM) | < 2 | < 2 | < 2 | 2 (≈ 4.61 µM) | 2 (≈ 4.61 µM) | < 2 | 2 (≈ 4.61 µM) | 2 (≈ 4.61 µM) |  |  |  |  |  |  |  |  | 
15 | Cc1ccc(C2c3c(-c4ccccc4)nn(-c4ccc([N+](=O)[O-])cc4)c3Nc3[nH]c(=O)[nH]c(=O)c32)cc1 (configuration not stated) | 28 (≈ 56.9 µM) | 6 (≈ 12.2 µM) | < 2 | 4 (≈ 8.12 µM) | 6 (≈ 12.2 µM) | 2 (≈ 4.06 µM) | 2 (≈ 4.06 µM) | 24 (≈ 48.7 µM) | 2 (≈ 4.06 µM) |  |  |  |  |  |  |  |  | 
16 | O=c1[nH]c(=S)[nH]c2c1C(c1ccc([N+](=O)[O-])cc1)c1c(-c3ccccc3)nn(-c3ccccc3)c1N2 (configuration not stated) | 12 (≈ 24.3 µM) | 4 (≈ 8.09 µM) | 6 (≈ 12.1 µM) | 6 (≈ 12.1 µM) | 4 (≈ 8.09 µM) | 14 (≈ 28.3 µM) | 3 (≈ 6.07 µM) | 8 (≈ 16.2 µM) | 4 (≈ 8.09 µM) |  |  |  |  |  |  |  |  | 
17 | O=c1[nH]c2c(c(=O)[nH]1)C(c1ccc(Br)cc1)c1c(-c3ccccc3)nn(-c3ccc([N+](=O)[O-])cc3)c1N2 (configuration not stated) | 32 (≈ 57.4 µM) | 4 (≈ 7.18 µM) | < 2 | 4 (≈ 7.18 µM) | 8 (≈ 14.4 µM) | 4 (≈ 7.18 µM) | 2 (≈ 3.59 µM) | 32 (≈ 57.4 µM) | 4 (≈ 7.18 µM) |  |  |  |  |  |  |  |  | 
18 | O=c1[nH]c2c(c(=O)[nH]1)C(c1ccc(Cl)cc1)c1c(-c3ccccc3)nn(-c3ccccc3)c1N2 (configuration not stated) | 2 (≈ 4.27 µM) | 2 (≈ 4.27 µM) | < 2 | < 2 | 4 (≈ 8.55 µM) | 32 (≈ 68.4 µM) | < 2 | 4 (≈ 8.55 µM) | 64 (≈ 137 µM) |  |  |  |  |  |  |  |  | 
